This note sets out measurements from patent US20060057228A1, “Weight loss composition” (Pure World Botanicals, Inc., priority 2004, published 2006).

This assay relates to undifferentiated 3T3-L1 cell. The assay can be described thus: Anti-adipogenesis assay on undifferentiated 3T3-L1 cell. Format: cell-based. An excerpt: The major component of weight gain is the increase and accumulation of fat through adipogenesis process. Adipogenesis is characterized by increase of both fat cell number and fat cell size. The weight loss composition of the present invention, banaba extracts, and some active components which were isolated from banaba have shown strong activity through an inhibitory activity on adipocyte differentiation to block fat cell synthesis to achieve the effect on bodyweight control and body fat loss. The following is the list of the results of anti-adipogenesis assay (Table 4).

The mark [1] stands for this setting: concentration level 0.002% (w/w).
The mark [2] stands for this setting: concentration level 0.004% (w/w).
The mark [3] stands for this setting: concentration level 0.05% (w/w).
The mark [4] stands for this setting: concentration level 0.10% (w/w).

With Lagerstroemin, the Percent of inhibitory runs as follows: under setting [1], 100%; under setting [2], 100%; under setting [3], 100%; under setting [4], 100%.
With `O=C(O[C@@H]1COC(=O)c2cc(O)c(O)c(O)c2-c2c(cc(O)c(O)c2O)C(=O)O[C@H]1[C@@H]1OC(=O)c2cc(O)c(O)c(O)c2-c2c(O)c(O)c(O)c3c2C(=O)O[C@H]1[C@@H]3O)c1cc(O)c(O)c(O)c1` [Casuarinin], the Percent of inhibitory under setting [1] was determined as 100%, the Percent of inhibitory under setting [2] was found to be 100%, the Percent of inhibitory under setting [3] is recorded as 100% and the Percent of inhibitory under setting [4] was determined as 100%.
Take `COc1c(O)cc2c(=O)oc3c(O)c(O)cc4c(=O)oc1c2c34` [3-O-methylellegic acid]: the Percent of inhibitory reads like this: under setting [1], 97%; under setting [2], 98%.
On to Banasulin, for which the Percent of inhibitory was 96% under setting [1], 79% under setting [2] and 99% under setting [3].
